US7094909B2, “HIV protease inhibitors, compositions containing the same, their pharmaceutical uses and materials for their synthesis” (priority 2001, dated 2006)
pKi: −log10 of the molar value.

Target: T1, HIV-1 protease (Q7S mutant form) (Human immunodeficiency virus type 1 group M subtype B, UniProt P04585, Q495S)
T1 construct: made in house
Assay: HIV-1 Protease RET assay
Type: biochemical
Settings: for pKi: Ki, unit inferred; for Ki: Ave. Ki (nM), RET assay, Q7S enzyme, Morrison tight binding fit
Experimental: Ki's for the inhibitors of HIV-1 protease were determined using a resonance energy transfer (RET) assay. […] This enzyme is first partially purified as inclusion bodies from cell lysate. It is then solublized in 8M urea and passed through a Q-Sepharose column (Pharmacia) for further purification. To refold this protein, samples containing Q7S is dialyzed into 50 mM sodium phosphate pH 7.0, 50 mM NaCl, 10 mM DTT, and 10% glycerol.
The commercially available peptide substrate (Molecular Probes Cat. # H-2930) RE(EDANS)SQNYPIVQK(DABCYL)R is used to assess activity and Ki's. This peptide is cleaved quantitatively by HIV-1 Pr at the Tyr-Pro bond. The EDANS fluorophore absorbs at 340 nm and emits at 490 nm. The reaction is carried out in a 96 well plate in a total volume of 100 µL and is run for 12 minutes at 37 C under steady-state conditions with 5 µM substrate and 2 nM active dimer enzyme concentration. The literature value Km for this substrate and enzyme is 103+/−8 µM (See Matayoshi, et al., “Novel Fluorogenic Substrates for Assaying Retroviral Proteases by Resonance Energy Transfer,” Science 247, 954 (1990)). The buffer for this reaction is 0.1M sodium acetate pH 4.8, 1M NaCl, 1 mM EDTA, 5 mM dithiothreitol, 10% dimethyl sulfoxide and 1 mg/ml bovine serum albumin. Inhibition curves are fit using the Morrison tight binding equation.

| Structure (SMILES) | pKi | Ki |
| --- | --- | --- |
| Cc1ccccc1CNC(=O)[C@@H]1N(C(=O)[C@@H](O)[C@H](Cc2ccccc2)NC(=O)CSc2c(C)cccc2C)CSC1(C)C | 6.37 |  |
| Cc1ccccc1CNC(=O)[C@H]1N(C(=O)[C@@H](O)[C@H](Cc2ccccc2)NC(=O)OC2CCC3CCCC3C2)CSC1(C)C (stereo partly shown) | 6.83 |  |
| C#CCOC(=O)N[C@@H](Cc1ccccc1)[C@H](O)C(=O)N1CSC(C)(C)[C@H]1C(=O)NCc1cccc(CC)c1 | 8.42 |  |
| COc1cccc(CNC(=O)[C@H]2N(C(=O)[C@@H](O)[C@H](Cc3ccccc3)NC(=O)OC(C)(C)C)CSC2(C)C)c1 | 7.17 |  |
| Cc1ccccc1CNC(=O)[C@H]1N(C(=O)[C@@H](O)[C@H](Cc2ccccc2)NC(=O)COc2cc(N(C)C)ccc2C)CSC1(C)C | 8.09 |  |
| Cc1ccccc1CNC(=O)C1N(C(=O)[C@@H](O)C(Cc2ccccc2)NC(=O)C(C)(C)C)CSC1(C)C (stereo partly shown) | 7.33 |  |
| C/C(=C/c1ccccc1)C(=O)N[C@@H](Cc1ccccc1)[C@H](O)C(=O)N1CSC(C)(C)[C@H]1C(=O)NCc1ccccc1C | 8.30 |  |
| Cc1ccccc1CNC(=O)C1N(C(=O)[C@@H](O)C(Cc2ccccc2)NC(=O)/C=C/c2c(Cl)cccc2Cl)CSC1(C)C (stereo partly shown) | 7.92 |  |
| Cc1ccccc1CNC(=O)C1N(C(=O)[C@@H](O)[C@H](Cc2ccccc2)NC(=O)c2ccc3ccncc3c2)CSC1(C)C (stereo partly shown) | 8.47 |  |
| Cc1ccccc1CNC(=O)C1N(C(=O)[C@@H](O)C(Cc2ccccc2)NC(=O)c2cnc3ccccc3c2)CSC1(C)C (stereo partly shown) | 7.74 |  |
| Cc1ccccc1CCC(=O)C1N(C(=O)[C@@H](O)C(Cc2ccccc2)NC(=O)C2CCC2)CSC1(C)C (stereo partly shown) | 8.36 |  |
| Cc1ccccc1CNC(=O)[C@H]1N(C(=O)[C@@H](O)[C@H](Cc2ccccc2)NC(=O)CNc2ccc(F)cc2)CSC1(C)C | 8.22 |  |
| Cc1ccccc1CCC(=O)C1N(C(=O)[C@@H](O)C(Cc2ccccc2)NC(=O)NCc2ccc(Cl)cc2)CSC1(C)C (stereo partly shown) | 8.09 |  |
| C#CC(C)OC(=O)N[C@@H](Cc1ccccc1)[C@H](O)C(=O)N1CSC(C)(C)[C@H]1C(=O)NCc1ccccc1C (stereo partly shown) | 8.27 |  |
| Cc1ccccc1CNC(=O)C1N(C(=O)[C@@H](O)C(Cc2ccccc2)NC(=O)OCc2cccnc2)CSC1(C)C (stereo partly shown) | 7.57 |  |
| C=CC(CC)OC(=O)N[C@@H](Cc1ccccc1)[C@H](O)C(=O)N1CSC(C)(C)[C@H]1C(=O)NCc1ccccc1C (stereo partly shown) | 7.04 |  |
| CC#CC(C)OC(=O)NC(Cc1ccccc1)[C@H](O)C(=O)N1CSC(C)(C)[C@H]1C(=O)NCc1ccccc1C (stereo partly shown) | 7.54 |  |
| Cc1c(O)cccc1C(=O)N[C@@H](Cc1ccccc1)[C@H](O)C(=O)N1CSC(C)(C)[C@H]1C(=O)NCc1cc(Cl)nc(Cl)c1 | 7.33 |  |
| Cc1ccccc1CNC(=O)[C@H]1N(C(=O)[C@@H](O)[C@H](Cc2ccccc2)NC(=O)/C=C/c2c(C)cccc2C)CSC1(C)C | 7.00 |  |
| Cc1ccccc1CNC(=O)[C@H]1N(C(=O)[C@@H](O)[C@H](Cc2ccccc2)NC(=O)C2CCNCC2)CSC1(C)C | 7.35 |  |
| Cc1ccccc1CNC(=O)[C@H]1N(C(=O)[C@@H](O)[C@H](Cc2ccccc2)NC(=O)CC(C)N)CSC1(C)C (stereo partly shown) | 6.97 |  |
| Cc1ccccc1CNC(=O)[C@H]1N(C(=O)[C@@H](O)[C@H](Cc2ccccc2)NC(=O)CC(C)NC(=O)OC(C)(C)C)CSC1(C)C (stereo partly shown) | 6.91 |  |
| Cc1ccccc1CNC(=O)[C@H]1N(C(=O)[C@@H](O)[C@H](Cc2ccccc2)NC(=O)C2=CCCCC2)CSC1(C)C | 8.33 |  |
| C/C=C(/C)C(=O)N[C@@H](Cc1ccccc1)[C@H](O)C(=O)N1CSC(C)(C)[C@H]1C(=O)NCc1ccccc1C | 8.12 |  |
| Cc1ccccc1CNC(=O)[C@H]1N(C(=O)[C@@H](O)[C@H](Cc2ccccc2)NC(=O)Cc2c(F)cccc2F)CSC1(C)C | 7.14 |  |

| Structure (SMILES) | pKi | Ki |
| --- | --- | --- |
| Cc1ccccc1CNC(=O)[C@H]1N(C(=O)[C@@H](O)[C@H](Cc2ccccc2)NC(=O)C2CCCNC2)CSC1(C)C (stereo partly shown) | 7.94 |  |
| Cc1ccccc1CNC(=O)[C@H]1N(C(=O)[C@@H](O)[C@H](Cc2ccccc2)NC(=O)C2CCCN(C(=O)OC(C)(C)C)C2)CSC1(C)C (stereo partly shown) | 6.93 |  |
| Cc1ccccc1CNC(=O)[C@@H]1CSCN1C(=O)[C@@H](O)[C@H](Cc1ccccc1)NC(=O)CCc1c(C)cccc1C | 7.70 |  |
| Cc1ccccc1CNC(=O)[C@@H]1CC(F)(F)CN1C(=O)[C@@H](O)[C@H](Cc1ccccc1)NC(=O)c1cccn1C | 7.23 |  |
| Cc1c(O)cccc1C(=O)N[C@@H](Cc1ccccc1)[C@H](O)C(=O)N1CSC(C)(C)[C@H]1C(=O)NC1(C#N)CC1 | 8.21 |  |
| Cc1cccc(C)c1CNC(=O)[C@@H]1C[C@@H]2CCCC[C@@H]2CC1C(=O)[C@@H](O)[C@H](Cc1ccccc1)NC(=O)c1cccc(O)c1C (stereo partly shown) | 7.08 |  |
| Cc1ccccc1CNC(=O)[C@@H]1N(C(=O)[C@@H](O)[C@H](Cc2ccccc2)NC(=O)c2cccc(O)c2C)CSC12CCCCC2 | 7.96 |  |
| CCCNC(=O)[C@@H]1CC(F)(F)CN1C(=O)[C@@H](O)[C@H](Cc1ccccc1)NC(=O)O[C@H]1CCOC1 | 7.38 |  |
| CCCNC(=O)[C@@H]1CC(F)(F)CN1C(=O)[C@@H](O)[C@H](Cc1ccccc1)NC(=O)c1ccc(C)c(O)c1C | 6.97 |  |
| CCNC(=O)C1c2ccccc2CN1C(=O)[C@@H](O)[C@H](Cc1ccccc1)NC(=O)c1c(C)noc1C (stereo partly shown) | 7.08 |  |
| Cc1ccccc1CNC(=O)[C@H]1N(C(=O)[C@@H](O)[C@H](Cc2ccccc2)NC(=O)CCN)CSC1(C)C | 6.81 |  |
| Cc1ccccc1CNC(=O)[C@H]1N(C(=O)[C@@H](O)[C@H](Cc2ccccc2)NC(=O)CCCN)CSC1(C)C | 7.29 |  |
| Cc1ccccc1CNC(=O)[C@H]1N(C(=O)[C@@H](O)[C@H](Cc2ccccc2)NC(=O)CN)CSC1(C)C | 6.96 |  |
| Cc1ccccc1CNC(=O)[C@H]1N(C(=O)[C@@H](O)[C@H](Cc2ccccc2)NC(=O)C(C)(C)CN)CSC1(C)C | 7.73 |  |
| Cc1ccccc1CNC(=O)[C@H]1N(C(=O)[C@@H](O)[C@H](Cc2ccccc2)NC(=O)C(C)CN)CSC1(C)C (stereo partly shown) | 6.80 |  |
| Cc1ccc(CNC(=O)NC(Cc2ccccc2)C(O)C(=O)N2CSC(C)(C)[C@H]2C(=O)NCc2ccccc2C)c(C)c1 (stereo in doubt) [Example B69, 3-{3-[3-(2,4-Dimethyl-benzyl)-ureido]-2-hydroxy-4-phenyl-butyryl}-5,5-dimethyl-thiazolidine-4-carboxylic acid 2-methyl-benzylamide] |  | 7.7 nM |
| COc1ccccc1CNC(=O)NC(Cc1ccccc1)C(O)C(=O)N1CSC(C)(C)[C@H]1C(=O)NCc1ccccc1C (stereo in doubt) [Example B70, 3-{2-Hydroxy-3-[3-(2-methoxy-benzyl)-ureido]-4-phenyl-butyryl}-5,5-dimethyl-thiazolidine-4-carboxylic acid 2-methyl-benzylamide] |  | 21 nM |
| Cc1ccccc1CNC(=O)[C@H]1N(C(=O)C(O)C(Cc2ccccc2)NC(=O)NCc2ccc(F)cc2F)CSC1(C)C (stereo in doubt) [Example B71, 3-{3-[3-(2,4-Difluoro-benzyl)-ureido]-2-hydroxy-4-phenyl-butyryl}-5,5-dimethyl-thiazolidine-4-carboxylic acid 2-methyl-benzylamide] |  | 6.4 nM |
| Cc1ccccc1CNC(=O)[C@H]1N(C(=O)C(O)C(Cc2ccccc2)NC(=O)NCc2ccccc2Br)CSC1(C)C (stereo in doubt) [Example B72, 3-{3-[3-(2-Bromo-benzyl)ureido]-2-hydroxy-4-phenyl-butyryl}-5,5-dimethyl-thiazolidine-4-carboxylic acid 2-methyl-benzylamide] |  | 6.6 nM |
| Cc1ccccc1CNC(=O)[C@H]1N(C(=O)C(O)C(Cc2ccccc2)NC(=O)NCc2ccc(Br)cc2)CSC1(C)C (stereo in doubt) [Example B73, 3-{3-[3-(4Bromo-benzyl)-ureido]-2-hydroxy-4phenyl-butyryl}-5,5-dimethyl-thiazolidine-4-carboxylic acid 2-methyl-benzylamide] |  | 13 nM |
| Cc1c(O)cccc1C(=O)N[C@@H](Cc1ccccc1)[C@H](O)C(=O)N1CSC(C)(C)[C@H]1C(=O)NCc1nc2ccccc2[nH]1 [Example A60, (R)-3-[(2S,3S)-2-Hydroxy-3-(3-hydroxy-2-methyl-benzoylamino)-4-phenyl-butyryl]-5,5-dimethyl-thiazolidine-4-carboxylic acid (1H-benzoimidazol-2-ylmethyl)-amide] |  | 66.6 nM |
| Cc1ccccc1CNC(=O)[C@H]1N(C(=O)[C@@H](O)[C@H](Cc2ccccc2)NC(=O)NC(C)C)CSC1(C)C [Example B17, 3-[(S)-2-Hydroxy-3-(3-isopropyl-ureide)-4-phenyl-butyryl]-5,5-dimethyl-thiazolidine-4carboxylic acid 2-methyl-benzylamide] |  | 4.8 nM |
| CC1(C)SCN(C(=O)[C@@H](O)[C@H](Cc2ccccc2)NC(=O)NCc2ccccc2Cl)C1C(=O)NCc1ccccc1Cl (stereo partly drawn) [Example B46, 3-{(2S,3S)-3-[3-(2-Chloro-benzyl)-ureido]-2-hydroxy-4-phenyl-butyryl}-5,5-dimethyl-thiazolidine-4-carboxylic acid 2-chloro-benzylamide] |  | 93 nM |
| CC1(C)SCN(C(=O)[C@@H](O)[C@H](Cc2ccccc2)NC(=O)NCc2c(F)cccc2F)[C@@H]1C(=O)NCc1c(F)cccc1F [Example B49] |  | 120 nM |
